In patent publication US8748180B2, “Microfluidic device for pharmacokinetic-pharmacodynamic study of drugs and uses thereof” (Cornell University, priority 2009, dated 2014):

Columns and labels:
[1] = tested on: HCT-116; assay: Toxicity in three-chamber μCCA (dynamic conditions), Trypan-blue viability, PK-PD model fit; conditions: three days
Experimental: (§2) The device was placed on a rocking platform, set to change direction at approximately every 3 min.
(§3) The whole system was placed inside a cell culture incubator with 5% CO2. After a specified amount of time, the device was dissembled and cells were retrieved by dissolving the alginate in a dissolving buffer (55 mM sodium citrate, 30 mM EDTA, 0.15M NaCl) for 30 min at 37° C., or from […] ® by dissolving in DPBS with 5 mM EDTA solution at 4° C. Cell viability was determined by Trypan-blue exclusion assay using a hemocytometer. At least triplicates were done for each data point.
(§4) An integrated PK-PD model was developed by constructing a PK and PD model separately, and then combining the two. A PK model has the same layout of compartments as a μCCA device. A PD model is integrated into each compartment, describing the kinetics of cell death in each organ. To construct a PK model for a μCCA, mass balance equations describing the flow in, flow out, and metabolism were set up for each compartment, and the ordinary differential equations (ODEs) were solved numerically. Solving the equations required several parameters, such as physiological parameters (flow rate and size of chambers) and enzyme kinetic parameters for the metabolism of 5-FU and uracil, which are summarized in Table 1. […]

[2] = tested on: HepG2/C3A, HCT-116 and Kasumi-1 cells; assay: μCCA viability of three cell lines, 5-FU alone vs 5-FU plus uracil (uracil as modulator)
Experimental: The device was assembled by sandwiching a cell culture chamber layer and a fluidic channel layer between an aluminum bottom frame and a PLEXIGLAS® top frame. A silicone gasket and a polycarbonate base were added to ensure better sealing. […] The device was placed on a rocking platform, set to change direction at approximately every 3 min.
as §3
The effect of uracil as a modulator of 5-FU toxicity was tested by comparing the responses of cells to 5-FU plus uracil and 5-FU alone. […] Cells were also encapsulated in a different hydrogel, […] ®, in a μCCA.

[3] = previous clinical findings; cited from earlier work
[4] = tested on: Kasumi-1; assay: Toxicity in three-chamber μCCA (dynamic conditions), Trypan-blue viability, PK-PD model fit; conditions: three days
Experimental: as §2, §3, §4

[5] = tested on: HepG2/C3A; assay: as above; conditions: both static and dynamic conditions; lower Kmax or higher KC50
Experimental: as §2, §3, §4

[6] = tested on: dihydropyrimidine dehydrogenase (DPD); conditions: PK model parameter; calculated from rate of metabolism in a rat and reported liver protein content and cell number; cited from earlier work
[7] = tested on: HepG2/C3A; assay: Toxicity experiment in static conditions, hydrogel-encapsulated cells, Trypan-blue viability, PD model fit; type: cell-based; conditions: three days
Experimental: (§1) For static condition experiment, the same silicone gaskets were prepared on a glass slide, similar to the μCCA. Cells were seeded into the holes, encapsulated in hydrogel, and […] of cell culture medium were placed on top. This volume is same as the volume of medium placed in the reservoir of a μCCA. Therefore, cells in static conditions are essentially the same as the cells in a μCCA, except that the device was not assembled with the channel layer, and cells were immersed in liquid medium. Cell viability was assessed using the same method as a μCCA.

[8] = tested on: HCT-116; assay: as above; type: cell-based; conditions: Homo sapiens, HCT-116, 72 h, 5-FU 0, 0.1, 0.2, 0.5 mM, three days, read-out: KC50 (drug concentration where half of the maximum rate is observed), fitted PD parameter
Experimental: as §1

[9] = tested on: Kasumi-1; assay: as above; type: cell-based; conditions: Homo sapiens, Kasumi 1, 72 h, 5-FU 0, 0.1, 0.2, 0.5 mM, three days, read-out: KC50 (drug concentration where half of the maximum rate is observed), fitted PD parameter
Experimental: as §1

Row | Compound | Sensitivity to 5-FU treatment compared with hepatoma (HepG2/C3A) cell line [1] | Sensitivity of cells to 5-FU in dynamic conditions versus static conditions [2] | Dose-limiting toxicity [3] | Sensitivity to 5-FU treatment compared with hepatoma (HepG2/C3A) cell line [4] | Resistance to 5-FU compared with other two cell types [5] | Maximum rate of metabolism (Vm) [6] | EC50 ([7]; HepG2/C3A, 72 h, 5-FU 0, 0.1, 0.2, 0.5 mM, read-out: KC50 (drug concentration where half of the maximum rate is observed), fitted PD parameter) | Drop in viability compared with other cell types [7] | EC50 [8] | EC50 [9]
1 | O=c1[nH]cc(F)c(=O)[nH]1 [5-FU, 5-fluorouracil] | much more sensitive | more sensitive | hematological toxicity | much more sensitive | most resistant | 2385 nmol/min/mL | 5.52 mM | slower drop in the viability | 8.61 mM | 7.41 mM
2 | O=c1cc[nH]c(=O)[nH]1 [uracil] | – | – | – | – | – | 1695 nmol/min/mL | – | – | – | –
